The source made the active and inactive calls. The calls are words filed in the database; no cut-off is given here. Where a SMILES comes first, the peptide text is derived from it. [ ]: non-standard residue; d: D form. The star is where a group is joined. Palmitoyl = CCCCCCCCCCCCCCCC(=O)*; βAla = NCCC(=O)O
Experiments:
Format in all cases: functional, organism-based
Influenza A virus [1] = test: Antiviral activity against oseltamivir-resistant Influenza A virus (H1N1) TJ/15
Influenza A virus [2] = test: Antiviral activity against oseltamivir-resistant Influenza A virus (H1N1) LN/1109
Influenza A virus [3] = test: Antiviral activity against oseltamivir-resistant Influenza A virus (H1N1) TJ/15 up to 100 uM

Row | Compound | EC50 (Influenza A virus [1]) | EC50 (Influenza A virus [2]) | inhibition (Influenza A virus [3])
1 | CCCCCCCCCCCCCCCC(=O)NCCCC[C@H](NC(=O)CCNC(=O)[C@H](CCCCN)NC(=O)[C@H](CCCCN)NC(=O)[C@H](CCC(N)=O)NC(=O)[C@@H](NC(=O)[C@H](CCC(=O)O)NC(=O)[C@H](CCC(=O)O)NC(=O)[C@@H](NC(=O)[C@H](CCCCN)NC(=O)[C@H](CCCCN)NC(=O)[C@H](CCC(N)=O)NC(=O)[C@@H](NC(=O)[C@H](CCC(=O)O)NC(=O)[C@H](CCC(=O)O)NC(=O)[C@@H](NC(=O)[C@H](CCCCN)NC(=O)[C@H](CCCCN)NC(=O)[C@H](CCC(N)=O)NC(=O)[C@@H](NC(=O)[C@H](CCC(=O)O)NC(=O)[C@H](CCC(=O)O)NC(=O)[C@@H](NC(=O)[C@H](CCCCN)NC(=O)[C@H](CCCCN)NC(=O)[C@H](CCC(N)=O)NC(=O)[C@@H](NC(=O)[C@H](CCC(=O)O)NC(=O)[C@H](CCC(=O)O)NC(=O)[C@@H](NC(=O)[C@H](CCCCN)NC(=O)[C@H](CCCCN)NC(=O)[C@H](CCC(N)=O)NC(=O)[C@@H](NC(=O)[C@H](CCC(=O)O)NC(=O)[C@H](CCC(=O)O)NC(=O)[C@@H](NC(C)=O)[C@@H](C)CC)[C@@H](C)CC)[C@@H](C)CC)[C@@H](C)CC)[C@@H](C)CC)[C@@H](C)CC)[C@@H](C)CC)[C@@H](C)CC)[C@@H](C)CC)[C@@H](C)CC)C(N)=O (Ac-IEEIQKKIEEIQKKIEEIQKKIEEIQKKIEEIQKK[βAla]K(Palmitoyl)-NH2) | 3.03 µM | 4.36 µM | –
2 | CCOC(=O)C1=C[C@@H](OC(CC)CC)[C@H](NC(C)=O)[C@@H](N)C1 [OSELTAMIVIR] | – | 21.7 µM | inactive

Reference: ChEMBL document CHEMBL4196194, “De Novo Design of α-Helical Lipopeptides Targeting Viral Fusion Proteins: A Promising Strategy for Relatively Broad-Spectrum Antiviral Drug Discovery” (J Med Chem, 2018)
